In patent US20260022142A1, “MACROCYCLIC IMMUNOMODULATORS” (Bristol-Myers Squibb Company, priority 2022, published 2026):
Bridge positions count the residues as written; N and C are the ends. Square brackets hold non-standard residues; d marks the D form. Peptide text beside a SMILES is read from it. * marks the point of attachment. ξ: configuration not given here. Bip = N[C@@H](Cc1ccc(-c2ccccc2)cc1)C(=O)O; Phe(3-Me) = Cc1cccc(C[C@H](N)C(=O)O)c1; hArg = N=C(N)NCCCC[C@H](N)C(=O)O; 3Thi = N[C@@H](Cc1ccsc1)C(=O)O; Cha = N[C@@H](CC1CCCCC1)C(=O)O; Cit = NC(=O)NCCC[C@H](N)C(=O)O; Thr(3ξ) = CC(O)[C@H](N)C(=O)O; NMeNle = CCCC[C@H](NC)C(=O)O; 12Ado = NCCCCCCCCCCCC(=O)O; dOrn = NCCC[C@@H](N)C(=O)O; dDab = NCC[C@@H](N)C(=O)O; Carboxymethyl = O=C(O)C*; Orn = NCCC[C@H](N)C(=O)O; Aun = NCCCCCCCCCCC(=O)O; Dab = NCC[C@H](N)C(=O)O; Piv = CC(C)(C)C(=O)*

Molecular target: T1, PD-1/PD-L1 interaction (PE-labeled human PD-L1-Ig binding to Jurkat cell line over-expressing human PD-1) (Homo sapiens, UniProt Q15116)
T1 construct: expressed in transfected cells; host or cells: Jurkat
Assay: Jurkat-PD-1 Cell Binding High-Content Screening Assay (CBA)
Type: cell-based
Settings: Jurkat cell line over-expressing human PD-1; PE-labeled PD-L1-Ig 20 nM final; read-out: Jurkat hPD1-PDL1 IC50
Outline: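 Read-out is high-content imaging of cell-bound phycoerythrin-tagged PD-L1-Ig on fixed, Hoechst-counterstained Jurkat cells that over-express human PD-1. Compound exposure lasts 2 h at 37° C before the labeled ligand (20 nM final) is added for a further hour.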

T1 sequence (Q15116 25-288): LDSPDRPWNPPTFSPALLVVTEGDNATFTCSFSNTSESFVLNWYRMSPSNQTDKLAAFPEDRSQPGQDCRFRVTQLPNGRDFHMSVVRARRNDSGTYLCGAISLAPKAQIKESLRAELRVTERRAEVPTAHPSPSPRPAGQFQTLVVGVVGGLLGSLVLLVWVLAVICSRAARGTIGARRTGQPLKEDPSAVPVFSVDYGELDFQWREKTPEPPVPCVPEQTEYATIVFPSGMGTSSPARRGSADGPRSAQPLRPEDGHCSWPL

Row | Compound | IC50
1 | Cc1cccc(C[C@@H]2NC(=O)[C@H](CC(=O)O)NC(=O)[C@H](Cc3ccc(OCC(=O)O)cc3)NC(=O)[C@H](CCCNC(=N)N)NC(=O)CSC[C@@H](C(=O)N[C@@H](CCN)C(=O)NCCCCCCCCCCC(=O)O)NC(=O)[C@H](Cc3ccsc3)NC(=O)[C@H](C(C)C)NC(=O)[C@H](CC3CCCCC3)NC(=O)[C@H](CCN)NC(=O)[C@@H](CC(C)C)NC(=O)[C@H](CCCN)NC(=O)[C@H](Cc3ccc(OCC(=O)O)cc3)NC(=O)[C@H](Cc3ccc(-c4ccccc4)cc3)NC(=O)[C@H](Cc3ccc(OCC(=O)O)cc3)NC2=O)c1 [Compound 3545] ({CH2CO}-RY(Carboxymethyl)D[Phe(3-Me)]Y(Carboxymethyl)[Bip]Y(Carboxymethyl)[Orn][dL][Dab][Cha]V[3Thi]C[Dab][Aun]-OH; thioether N-14) | 155 nM
2 | Cc1cccc(C[C@@H]2NC(=O)[C@H](CC(=O)O)NC(=O)[C@H](Cc3ccc(OCC(=O)O)cc3)NC(=O)[C@H](CCCCNC(=N)N)NC(=O)CSC[C@@H](C(=O)N[C@@H](CCCCN)C(=O)N[C@@H](CO)C(=O)NCCCCCCCCCCC(=O)O)NC(=O)[C@H](C(C)O)NC(=O)[C@H](C(C)O)NC(=O)[C@H](CC3CCCCC3)NC(=O)[C@H](CCN)NC(=O)[C@@H](CC(C)C)NC(=O)[C@H](CCCN)NC(=O)[C@H](CCCNC(=N)N)NC(=O)[C@H](Cc3ccc(-c4ccccc4)cc3)NC(=O)[C@H](C(C)C)NC2=O)c1 (stereo partly drawn) [Compound 3547] ({CH2CO}-[hArg]Y(Carboxymethyl)D[Phe(3-Me)]V[Bip]R[Orn][dL][Dab][Cha][Thr(3ξ)][Thr(3ξ)]CKS[Aun]-OH; thioether N-14) | 74 nM
3 | CC(=O)NCCCC[C@@H]1NC(=O)[C@H](Cc2ccc(-c3ccccc3)cc2)NC(=O)[C@H](C(C)C)NC(=O)[C@H](Cc2cccc(C)c2)NC(=O)[C@H](CC(=O)O)NC(=O)[C@H](Cc2ccc(OCC(=O)O)cc2)NC(=O)[C@H](CCCNC(=N)N)NC(=O)CSC[C@@H](C(=O)N[C@H](CC(N)=O)C(=O)NCCCCCCCCCCC(=O)O)NC(=O)[C@H](C(C)O)NC(=O)[C@H](C(C)C)NC(=O)[C@H](CC2CCCCC2)NC(=O)[C@H](CCN)NC(=O)[C@@H](CC(C)C)NC(=O)[C@H](CCCN)NC1=O (stereo partly drawn) [Compound 3548] ({CH2CO}-RY(Carboxymethyl)D[Phe(3-Me)]V[Bip]K(Ac)[Orn][dL][Dab][Cha]V[Thr(3ξ)]C[dN][Aun]-OH; thioether N-14) | 11.1 nM
4 | Cc1cccc(C[C@@H]2NC(=O)[C@H](CC(=O)O)NC(=O)[C@H](Cc3ccc(OCC(=O)O)cc3)NC(=O)[C@H](CCCNC(=N)N)NC(=O)CSC[C@@H](C(=O)N[C@@H](CCCCN)C(=O)N[C@@H](CO)C(=O)NCCCCCCCCCCCC(=O)O)NC(=O)[C@H](C(C)O)NC(=O)[C@H](C(C)C)NC(=O)[C@H](CC3CCCCC3)NC(=O)[C@H](CCN)NC(=O)[C@@H](CC(C)C)NC(=O)[C@H](CCCN)NC(=O)[C@H](CCCNC(N)=O)NC(=O)[C@H](Cc3ccc(-c4ccccc4)cc3)NC(=O)[C@H](C(C)C)NC2=O)c1 (stereo partly drawn) [Compound 3549] ({CH2CO}-RY(Carboxymethyl)D[Phe(3-Me)]V[Bip][Cit][Orn][dL][Dab][Cha]V[Thr(3ξ)]CKS[12Ado]-OH; thioether N-14) | 37 nM
5 | Cc1cccc(C[C@@H]2NC(=O)[C@H](CC(=O)O)NC(=O)[C@H](Cc3ccc(OCC(=O)O)cc3)NC(=O)[C@H](CCCNC(=N)N)NC(=O)CSC[C@@H](C(=O)N[C@@H](CCCCN)C(=O)N[C@@H](CO)C(=O)NCCCCCCCCCCCC(=O)O)NC(=O)[C@H](C(C)O)NC(=O)[C@H](C(C)C)NC(=O)[C@H](CC3CCCCC3)NC(=O)[C@H](CCN)NC(=O)[C@@H](CC(C)C)NC(=O)[C@H](CCCN)NC(=O)[C@H](CCCNC(=N)N)NC(=O)[C@H](Cc3ccc(-c4ccccc4)cc3)NC(=O)[C@H](Cc3ccc(O)cc3)NC2=O)c1 (stereo partly drawn) [Compound 3550] ({CH2CO}-RY(Carboxymethyl)D[Phe(3-Me)]Y[Bip]R[Orn][dL][Dab][Cha]V[Thr(3ξ)]CKS[12Ado]-OH; thioether N-14) | 76.2 nM
6 | Cc1cccc(C[C@@H]2NC(=O)[C@H](CC(=O)O)NC(=O)[C@H](Cc3ccc(OCC(=O)O)cc3)NC(=O)[C@H](CCCCNC(=N)N)NC(=O)CSC[C@@H](C(=O)N[C@@H](CCN)C(=O)NCCCCCCCCCCCC(=O)O)NC(=O)[C@H](C(C)O)NC(=O)[C@H](C(C)C)NC(=O)[C@H](CC3CCCCC3)NC(=O)[C@H](CCN)NC(=O)[C@@H](CC(C)C)NC(=O)[C@H](CCCN)NC(=O)[C@H](CCCNC(N)=O)NC(=O)[C@H](Cc3ccc(-c4ccccc4)cc3)NC(=O)[C@H](C(C)C)NC2=O)c1 (stereo partly drawn) [Compound 3551] ({CH2CO}-[hArg]Y(Carboxymethyl)D[Phe(3-Me)]V[Bip][Cit][Orn][dL][Dab][Cha]V[Thr(3ξ)]C[Dab][12Ado]-OH; thioether N-14) | 33.4 nM
7 | Cc1cccc(C[C@@H]2NC(=O)[C@H](CC(=O)O)NC(=O)[C@H](Cc3ccc(OCC(=O)O)cc3)NC(=O)[C@H](CCCCNC(=N)N)NC(=O)CSC[C@@H](C(=O)N[C@H](CCC(=O)O)C(=O)NCCCCCCCCCCCC(=O)O)NC(=O)[C@H](C(C)O)NC(=O)[C@H](C(C)C)NC(=O)[C@H](CC3CCCCC3)NC(=O)[C@H](CCN)NC(=O)[C@@H](CC(C)C)NC(=O)[C@H](CCCN)NC(=O)[C@H](CCCNC(N)=O)NC(=O)[C@H](Cc3ccc(-c4ccccc4)cc3)NC(=O)[C@H](C(C)C)NC2=O)c1 (stereo partly drawn) [Compound 3552] ({CH2CO}-[hArg]Y(Carboxymethyl)D[Phe(3-Me)]V[Bip][Cit][Orn][dL][Dab][Cha]V[Thr(3ξ)]C[dE][12Ado]-OH; thioether N-14) | 20.5 nM
8 | Cc1cccc(C[C@@H]2NC(=O)[C@H](CC(=O)O)NC(=O)[C@H](Cc3ccc(OCC(=O)O)cc3)NC(=O)[C@H](C(C)O)NC(=O)CSC[C@@H](C(=O)N[C@H](CCC(=O)O)C(=O)NCCCCCCCCCCCC(=O)O)NC(=O)[C@H](C(C)O)NC(=O)[C@H](C(C)C)NC(=O)[C@H](CC3CCCCC3)NC(=O)[C@H](CCN)NC(=O)[C@@H](CC(C)C)NC(=O)[C@H](CCCN)NC(=O)[C@H](CCCNC(N)=O)NC(=O)[C@H](Cc3ccc(-c4ccccc4)cc3)NC(=O)[C@H](C(C)C)NC2=O)c1 (stereo partly drawn) [Compound 3553] ({CH2CO}-[Thr(3ξ)]Y(Carboxymethyl)D[Phe(3-Me)]V[Bip][Cit][Orn][dL][Dab][Cha]V[Thr(3ξ)]C[dE][12Ado]-OH; thioether N-14) | 37.3 nM
9 | Cc1cccc(C[C@@H]2NC(=O)[C@H](CC(=O)O)NC(=O)[C@H](Cc3ccc(OCC(=O)O)cc3)NC(=O)[C@H](C(C)O)NC(=O)CSC[C@@H](C(=O)N[C@@H](CCN)C(=O)NCCCCCCCCCCC(=O)O)NC(=O)[C@H](C(C)O)NC(=O)[C@H](C(C)C)NC(=O)[C@H](CC3CCCCC3)NC(=O)[C@H](CCN)NC(=O)[C@@H](CC(C)C)NC(=O)[C@H](CCCNC(=N)N)NC(=O)[C@H](CCCNC(N)=O)NC(=O)[C@H](Cc3ccc(-c4ccccc4)cc3)NC(=O)[C@H](C(C)C)NC2=O)c1 (stereo partly drawn) [Compound 3554] ({CH2CO}-[Thr(3ξ)]Y(Carboxymethyl)D[Phe(3-Me)]V[Bip][Cit]R[dL][Dab][Cha]V[Thr(3ξ)]C[Dab][Aun]-OH; thioether N-14) | 18.4 nM
10 | CCCC[C@H]1C(=O)N[C@@H](Cc2ccc(OCC(=O)O)cc2)C(=O)N[C@@H](CC(=O)O)C(=O)N[C@@H](Cc2cccc(C)c2)C(=O)N[C@@H](C(C)C)C(=O)N[C@@H](Cc2ccc(-c3ccccc3)cc2)C(=O)N[C@@H](CCCNC(N)=O)C(=O)N[C@@H](CCCN)C(=O)N[C@H](CC(C)C)C(=O)N[C@@H](CCN)C(=O)N[C@@H](CC2CCCCC2)C(=O)N[C@@H](C(C)C)C(=O)N[C@@H](C(C)O)C(=O)N[C@H](C(=O)N[C@@H](CCN)C(=O)NCCCCCCCCCCC(=O)O)CSCC(=O)N1C (stereo partly drawn) [Compound 3555] ({CH2CO}-[NMeNle]Y(Carboxymethyl)D[Phe(3-Me)]V[Bip][Cit][Orn][dL][Dab][Cha]V[Thr(3ξ)]C[Dab][Aun]-OH; thioether N-14) | 42.8 nM
11 | Cc1cccc(C[C@@H]2NC(=O)[C@H](CC(=O)O)NC(=O)[C@H](Cc3ccc(OCC(=O)O)cc3)NC(=O)[C@H](CCCNC(=N)N)NC(=O)CSC[C@@H](C(=O)N[C@@H](CCN)C(=O)NCCCCCCCCCCC(=O)O)NC(=O)[C@H](C(C)O)NC(=O)[C@H](C(C)C)NC(=O)[C@H](CC3CCCCC3)NC(=O)[C@H](CCN)NC(=O)[C@@H](CC(C)C)NC(=O)[C@H](CCCN)NC(=O)[C@H](CCCCNC(=O)C(C)(C)C)NC(=O)[C@H](Cc3ccc(-c4ccccc4)cc3)NC(=O)[C@H](Cc3ccc(O)cc3)NC2=O)c1 (stereo partly drawn) [Compound 3556] ({CH2CO}-RY(Carboxymethyl)D[Phe(3-Me)]Y[Bip]K(Piv)[Orn][dL][Dab][Cha]V[Thr(3ξ)]C[Dab][Aun]-OH; thioether N-14) | 13.2 nM
12 | CC(=O)NCCCC[C@@H]1NC(=O)[C@H](Cc2ccc(-c3ccccc3)cc2)NC(=O)[C@H](C(C)C)NC(=O)[C@H](Cc2cccc(C)c2)NC(=O)[C@H](CC(=O)O)NC(=O)[C@H](Cc2ccc(OCC(=O)O)cc2)NC(=O)[C@H](CCCNC(=N)N)NC(=O)CSC[C@@H](C(=O)N[C@H](CCN)C(=O)NCCCCCCCCCCC(=O)O)NC(=O)[C@H](C(C)O)NC(=O)[C@H](C(C)C)NC(=O)[C@H](CC2CCCCC2)NC(=O)[C@H](CCN)NC(=O)[C@@H](CC(C)C)NC(=O)[C@H](CCCN)NC1=O (stereo partly drawn) [Compound 3558] ({CH2CO}-RY(Carboxymethyl)D[Phe(3-Me)]V[Bip]K(Ac)[Orn][dL][Dab][Cha]V[Thr(3ξ)]C[dDab][Aun]-OH; thioether N-14) | 29.8 nM
13 | CC(=O)NCCCC[C@@H]1NC(=O)[C@H](Cc2ccc(-c3ccccc3)cc2)NC(=O)[C@H](C(C)C)NC(=O)[C@H](Cc2cccc(C)c2)NC(=O)[C@H](CC(=O)O)NC(=O)[C@H](Cc2ccc(OCC(=O)O)cc2)NC(=O)[C@H](CCCNC(=N)N)NC(=O)CSC[C@@H](C(=O)N[C@H](CCCN)C(=O)NCCCCCCCCCCC(=O)O)NC(=O)[C@H](C(C)O)NC(=O)[C@H](C(C)C)NC(=O)[C@H](CC2CCCCC2)NC(=O)[C@H](CCN)NC(=O)[C@@H](CC(C)C)NC(=O)[C@H](CCCN)NC1=O (stereo partly drawn) [Compound 3559] ({CH2CO}-RY(Carboxymethyl)D[Phe(3-Me)]V[Bip]K(Ac)[Orn][dL][Dab][Cha]V[Thr(3ξ)]C[dOrn][Aun]-OH; thioether N-14) | 14.1 nM
